Results reported in PubChem BioAssay AID1963985 (Molecular Pharmacology Branch, DTP, NCI, 2024).
Values belong to the molecule of their own block, whether it stands above or below them.

System: 252836-082-R-J2-PDC tumor spheroids, viability
Experiment: Anticancer human tumor 252836-082-R-J2-PDC patient-derived head and neck squamous cell carcinoma cell line growth inhibition [PI3K]
Conditions: spheroids with HUVEC and MSC; for IC50: curve of first compound; for viability, T/C: stronger effect = lower value
Method in brief: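 High-throughput combination screen: PI3K inhibitors crossed with targeted small molecules on complex spheroids of tumor cells, HUVEC and MSCs at 37 degrees C, 5% CO2. Top concentration was at or near clinical Cmax (otherwise 10 microM), with half-log decrements.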

[1] = second compound 0.00316 µM, first compound 0.0316 µM
[2] = second compound 0.00316 µM, first compound 0.1 µM
[3] = second compound 0.00316 µM, first compound 0.316 µM
[4] = second compound 0.00316 µM, first compound 1 µM
[5] = second compound 0.00316 µM, first compound 3.16 µM
[6] = second compound 0.00316 µM, first compound 10 µM
[7] = second compound 0.01 µM, first compound 0.0316 µM
[8] = second compound 0.01 µM, first compound 0.1 µM
[9] = second compound 0.01 µM, first compound 0.316 µM
[10] = second compound 0.01 µM, first compound 1 µM
[11] = second compound 0.01 µM, first compound 3.16 µM
[12] = second compound 0.01 µM, first compound 10 µM
[13] = second compound 0.0316 µM, first compound 0.0316 µM
[14] = second compound 0.0316 µM, first compound 0.1 µM
[15] = second compound 0.0316 µM, first compound 0.316 µM
[16] = second compound 0.0316 µM, first compound 1 µM
[17] = second compound 0.0316 µM, first compound 3.16 µM
[18] = second compound 0.0316 µM, first compound 10 µM
[19] = second compound 0.1 µM, first compound 0.0316 µM
[20] = second compound 0.1 µM, first compound 0.1 µM
[21] = second compound 0.1 µM, first compound 0.316 µM
[22] = second compound 0.1 µM, first compound 1 µM
[23] = second compound 0.1 µM, first compound 3.16 µM
[24] = second compound 0.1 µM, first compound 10 µM
[25] = second compound 0.316 µM, first compound 0.0316 µM
[26] = second compound 0.316 µM, first compound 0.1 µM
[27] = second compound 0.316 µM, first compound 0.316 µM
[28] = second compound 0.316 µM, first compound 1 µM
[29] = second compound 0.316 µM, first compound 3.16 µM
[30] = second compound 0.316 µM, first compound 10 µM
[31] = second compound 1 µM, first compound 0.0316 µM
[32] = second compound 1 µM, first compound 0.1 µM
[33] = second compound 1 µM, first compound 0.316 µM
[34] = second compound 1 µM, first compound 1 µM
[35] = second compound 1 µM, first compound 3.16 µM
[36] = second compound 1 µM, first compound 10 µM
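Note: spheroids exposed to agents for seven days before readout.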
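Throughout, for viability, T/C: percent of vehicle DMSO control viability so 100% = untreated growth.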

IC50 (second compound 0.00316 µM): 781 nM
IC50 (second compound 0.01 µM): 416 nM
IC50 (second compound 0.0316 µM): 376 nM
IC50 (second compound 0.1 µM): < 31.6 nM
IC50 (second compound 0.316 µM): < 31.6 nM
IC50 (second compound 1 µM): < 31.6 nM
Structure (SMILES): Cn1ncc(Cl)c1-c1cc(C(=O)NC(CN)Cc2cccc(F)c2)sc1Cl (centres undefined) + COc1c(OCCCN2CCOCC2)ccc2c3n(c(=NC(=O)c4cnc(N)nc4)nc12)CCN3
viability, T/C [1]: 88.6%
viability, T/C [2]: 79.1%
viability, T/C [3]: 60.2%
viability, T/C [4]: 45.7%
viability, T/C [5]: 32.3%
viability, T/C [6]: 11.2%
viability, T/C [7]: 71.8%
viability, T/C [8]: 67.8%
viability, T/C [9]: 50.6%
viability, T/C [10]: 40.1%
viability, T/C [11]: 29%
viability, T/C [12]: 18.4%
viability, T/C [13]: 59.1%
viability, T/C [14]: 68.6%
viability, T/C [15]: 50%
viability, T/C [16]: 34.5%
viability, T/C [17]: 23.1%
viability, T/C [18]: 11.7%
viability, T/C [19]: 40.8%
viability, T/C [20]: 36.4%
viability, T/C [21]: 37%
viability, T/C [22]: 26.4%
viability, T/C [23]: 17.2%
viability, T/C [24]: 9.98%
viability, T/C [25]: 21.1%
viability, T/C [26]: 13.9%
viability, T/C [27]: 14.8%
viability, T/C [28]: 14.2%
viability, T/C [29]: 13%
viability, T/C [30]: 7.08%
viability, T/C [31]: 4.42%
viability, T/C [32]: 4.98%
viability, T/C [33]: 4.84%
viability, T/C [34]: 6.71%
viability, T/C [35]: 4.88%
viability, T/C [36]: 1.6%

IC50 (second compound 0.00316 µM): > 10000 nM
IC50 (second compound 0.01 µM): > 10000 nM
IC50 (second compound 0.0316 µM): 4370 nM
IC50 (second compound 0.1 µM): < 31.6 nM
IC50 (second compound 0.316 µM): < 31.6 nM
IC50 (second compound 1 µM): < 31.6 nM
Structure (SMILES): Cn1nccc1Nc1nccc(-c2ccn(C(CO)c3ccc(Cl)c(F)c3)c(=O)c2)n1 (centres undefined) + COc1c(OCCCN2CCOCC2)ccc2c3n(c(=NC(=O)c4cnc(N)nc4)nc12)CCN3
viability, T/C [1]: 99.2%
viability, T/C [2]: 86.3%
viability, T/C [3]: 98%
viability, T/C [4]: 90%
viability, T/C [5]: 78.3%
viability, T/C [6]: 70.3%
viability, T/C [7]: 77.4%
viability, T/C [8]: 78.3%
viability, T/C [9]: 81.7%
viability, T/C [10]: 79.1%
viability, T/C [11]: 75.8%
viability, T/C [12]: 50.2%
viability, T/C [13]: 53%
viability, T/C [14]: 65.4%
viability, T/C [15]: 56.3%
viability, T/C [16]: 56.8%
viability, T/C [17]: 57.8%
viability, T/C [18]: 31.1%
viability, T/C [19]: 40.4%
viability, T/C [20]: 33.8%
viability, T/C [21]: 38.5%
viability, T/C [22]: 34.8%
viability, T/C [23]: 31.9%
viability, T/C [24]: 19.5%
viability, T/C [25]: 15.8%
viability, T/C [26]: 14.1%
viability, T/C [27]: 15.3%
viability, T/C [28]: 10.4%
viability, T/C [29]: 7.12%
viability, T/C [30]: 4.49%
viability, T/C [31]: 4.18%
viability, T/C [32]: 4.13%
viability, T/C [33]: 3.93%
viability, T/C [34]: 1.52%
viability, T/C [35]: 1.98%
viability, T/C [36]: 0.32%
